Laboratory results as given in patent US5580860A, “Pharmaceutical composition containing 2-amino-6-chloropurine-9-β-D-2',3'-dideoxyribofuranoxside” (priority 1989, dated 1996).
Values belong to the compound of their own block, whether it stands above or below them.

What was measured:
HIV [1] = conditions: compared with AZT; cited from earlier work
[2] = tested on: production of reverse transcriptase (HIV); conditions: J. Med. Chem., 32, 1135 (1989), cited from earlier work
cells [3] = conditions: J. Med. Chem., 32, 1135 (1989), cited from earlier work
[4] = tested on: AIDS virus (HIV) in ATH8 cells; assay: Antivirus test (1), anti-HIV effect in ATH8 cells; format: cell-based; conditions: for IC100: read-out: complete inhibition concentration for HIV
Procedure: (§1) Namely, after pretreatment beforehand with polybrene (made by Sigma Co.), 2×10^5 ATH 8 cells were exposed to AIDS virus (HIV) for 45 minutes to infect (the number of HIV was made so as to be 2000 per ATH8 cell). Successively, the infected cells were suspended into every 1 ml of respective media containing interleukin 2 (IL-2) and being added with anti-HIV agent in various concentrations and into 1 ml of medium containing IL-2 alone and not containing anti-HIV agent at any rate.
(§2) These were cultured at 37° C. in a mixed gas comprising 5% carbon dioxide and 95% air.
(§3) The cells for reference were similarly prepared except allowing to infect with AIDS virus (HIV).
(§4) After 5 days, whole number of cells was counted by hemocytometer method based on the dyeing with trypan blue.

[5] = tested on: p24 gag protein of HIV (H9 cells); assay: Antivirus test (2), expression of p24 gag protein in HIV-infected H9 cells; format: cell-based
Procedure: Namely, HIV-infected H9 cells added with anti-HIV agent in various concentrations were cultured for 8 days and 9 days, respectively, to assay the rate (%) of the target H9 cells expressing p24 gag protein of HIV. Measurement was made by a murine monoclonal antibody (M26) method.

[6] = Cytotoxicity in the anti-HIV test (ATH8 cells); format: cell-based; conditions: human, ath8 cells; DMSO present (1% at 200 μM); attributed to influence of DMSO; read-out: concentration at which cytotoxicity appears
Procedure: as §1, §2, §3, §4

ATH8 cells = assay: Cytotoxicity in the anti-HIV test (ATH8 cells); format: cell-based; conditions: in words
Procedure: as §1, §2, §3, §4

[7] = Lipophilicity test, partition coefficient by shake-flask method; format: physicochemical; conditions: n-octanol / phosphate buffer pH 7.4, shake-flask, HPLC
Procedure: As a method for determining the extent of lipophilicity, it is a general rule to measure the partition coefficient (P) in water-n-octanol. Thus, the lipophilicity test of 2-amino-6-chloropurine-9-β-2',3'-dideoxyribofuranoside concerned with the invention was performed by the method of using partition coefficient P by shake-flask method (J. Pharm. Pharmacol., 39, 253 (1987)).
Namely, n-octanol and phosphate buffer (pH 7.4) were transferred into a separatory funnel and shaken for 3 hours with a shaker, which was then allowed to stand for 12 hours to separate respectively. Into 50 ml of n-octanol-saturated buffer thus obtained was dissolved 1 mg of sample (dried for 12 hours at 50° C. in a vacuum dryer) and 0.5 ml of this solution were taken as a sample for quantitative determination. Remaining 49.5 ml of n-octanol-saturated buffer and 49.5 ml of buffer-saturated n-octanol were transferred into a separatory funnel.
After shaking for 3 hours with a shaker, this was allowed to stand for 2 hours and then centrifuged (1500 rpm, 15 minutes). After gently removing the n-octanol layer, the sample for quantitative determination was taken.
The partition coefficient P is defined as follows:
Co: Concentration of sample in buffer before shaking
Cw: Concentration of sample in buffer after shaking

HIV [8] = conditions: J. Biol. Chem., 263, 5870 (1988); cited from earlier work
cells [9] = conditions: read-out: concentration range from which cytotoxicity appears; J. Biol. Chem., 263, 5870 (1988); cited from earlier work
[10] = Human immunodeficiency virus 1, ATH-8, 120 h, ATH8 cells, 5 days

Compound: Nc1ccn([C@H]2CC[C@@H](CO)O2)c(=O)n1 [DDC, 2',3'-dideoxycytidine]
anti-HIV effect in vitro (HIV [1]): higher anti-HIV effect in vitro than that of AZT

Compound: Nc1nc(Cl)nc2c1ncn2[C@H]1C=C[C@@H](CO)O1 [2-chloro-2',3'-didehydro-2',3'-dideoxyadenosine]
inhibition of the production of reverse transcriptase at 20 μM ([2]; 20 μM): 75% | toxicity at a concentration over 20 μM (cells [3]; over 20 μM): the toxicity is so strong that the test cannot be performed

Compound: Nc1nc(Cl)c2ncn([C@H]3CC[C@@H](CO)O3)c2n1 [6-Cl-DDG, 2-amino-6-chloropurine-9-β-D-2',3'-dideoxyribofuranoside]
anti-HIV effect compared with DDG ([4]; ATH8 cells, vs DDG): equal or higher anti-HIV effect compared with DDG | IC100 [4, 10]: 5 µM | minimal effective concentration ([4]; Human immunodeficiency virus 1, ATH-8, 120 h, ATH8 cells, 5 days, read-out: concentration exhibiting HIV inhibition effect): 2 µM | anti-AIDS virus effect (anti-HIV effect) ([4]; in words): high anti-AIDS virus effect (anti-HIV effect) | IC100 ([5]; Human immunodeficiency virus 1, 8th and 9th day, read-out: concentration almost completely inhibiting the expressing of p24): 10 µM | minimal effective concentration ([5]; Human immunodeficiency virus 1, 8th and 9th day, read-out: concentration exhibiting inhibition effect on the expressing of p24 antigen): 3 µM | anti-HIV effect compared with DDG ([5]; vs DDG): equal or higher anti-HIV effect compared with DDG | MCC at 120 h [6]: > 200 µM | cytotoxicity (ATH8 cells): low cytotoxicity

logD [7]: -1.06
Compound: Nc1nc2c(ncn2[C@H]2CC[C@@H](CO)O2)c(=O)[nH]1 [DDG, 2'3'-dideoxyguanosine]
IC100 [4, 10]: 10 µM

Compound: OC[C@@H]1CC[C@H](n2cnc3c(O)ncnc32)O1 [DDI, 2',3'-dideoxyinosine]
anti-HIV effect in vitro (HIV [1]): higher anti-HIV effect in vitro than that of AZT | logD [7]: -1.22

Compound: Nc1nc(Cl)nc2c1ncn2[C@H]1CC[C@@H](CO)O1 [2-chloro-2',3'-dideoxyadenosine]
anti-HIV effect at 2 μM ([2]; 2 μM): no effect at all | inhibition of the production of reverse transcriptase at 100 μM ([2]; 100 μM): 97% | concentration exhibiting HIV inhibition effect (HIV [8]): 1 to 10 µM | MCC (cells [9]): 1 to 10 µM | cytotoxicity at 100 μM (cells [3]; 100 μM): 23%

Compound: Nc1nc(F)nc2c1ncn2[C@H]1CC[C@@H](CO)O1 [2-fluoro-2',3'-dideoxyadenosine]
concentration exhibiting HIV inhibition effect (HIV [8]): 1 to 10 µM | MCC (cells [9]): 1 to 10 µM

Compound: Nc1ncnc2c1ncn2[C@H]1CC[C@@H](CO)O1 [DDA, 2',3'-dideoxyadenosine]
anti-HIV effect in vitro (HIV [1]): higher anti-HIV effect in vitro than that of AZT

Compound: Nc1nc(Br)nc2c1ncn2[C@H]1CC[C@@H](CO)O1 [2-bromo-2',3'-dideoxyadenosine]
concentration exhibiting HIV inhibition effect (HIV [8]): 1 to 10 µM | MCC (cells [9]): 1 to 10 µM
